Measured values as given in US20230174507A1, “IMIDAZOLE 3-OXIDE DERIVATIVE BASED ACSS2 INHIBITORS AND METHODS OF USE THEREOF” (METABOMED LTD., priority 2020, published 2023).

How the values were obtained:
human ACSS2 protein = target: T1, human ACSS2 protein (Homo sapiens, UniProt Q9NR19); assay: ACSS2 cell-free activity assay (pyrophosphatase-coupled, Biomol green); conditions: 10 nM human ACSS2, 90 minutes at 37 C, absorbance at 620 nm; read-out: ACSS2 Biochemical IC50
T1 construct: purchased OriGene Technologies, Inc
T1 sequence (Q9NR19 whole entry): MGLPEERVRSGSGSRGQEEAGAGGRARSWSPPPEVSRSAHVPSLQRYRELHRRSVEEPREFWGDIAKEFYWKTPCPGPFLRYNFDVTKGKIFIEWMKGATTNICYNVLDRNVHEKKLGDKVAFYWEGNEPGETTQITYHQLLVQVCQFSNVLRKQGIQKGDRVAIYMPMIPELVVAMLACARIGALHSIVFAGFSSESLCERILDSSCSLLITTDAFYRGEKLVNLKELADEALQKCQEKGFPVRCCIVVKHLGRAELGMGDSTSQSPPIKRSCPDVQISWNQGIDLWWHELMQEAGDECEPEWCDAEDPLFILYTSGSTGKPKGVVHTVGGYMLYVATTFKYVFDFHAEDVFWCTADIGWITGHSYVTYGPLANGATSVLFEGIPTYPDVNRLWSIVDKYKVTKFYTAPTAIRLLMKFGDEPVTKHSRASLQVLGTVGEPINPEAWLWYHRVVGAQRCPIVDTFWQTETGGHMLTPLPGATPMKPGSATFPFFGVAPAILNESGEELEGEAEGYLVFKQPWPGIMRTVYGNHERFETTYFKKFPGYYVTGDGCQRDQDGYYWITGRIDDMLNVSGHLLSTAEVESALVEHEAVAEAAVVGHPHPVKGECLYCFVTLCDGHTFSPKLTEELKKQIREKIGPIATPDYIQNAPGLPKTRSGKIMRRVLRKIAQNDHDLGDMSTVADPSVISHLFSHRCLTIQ
Summary of the method: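 10 nM human ACSS2 incubated 90 min at 37 C with compound, 300 μM ATP, 10 μM CoA, 5 mM NaAc in pH 7.5 Hepes buffer with 0.5 U/ml pyrophosphatase. Released phosphate detected with Biomol Green at 620 nm; IC50 by non-linear regression constrained to 0% and 100%.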

human ACSS1 protein = target: T2, human ACSS1 protein (Homo sapiens, UniProt Q9NUB1); assay: ACSS1 cell-free activity assay (pyrophosphatase-coupled, Biomol green); assay type: biochemical; conditions: 5 nM human ACSS1, 30 minutes at room temperature, absorbance at 620 nm; for IC50: read-out: ACSS1 Biochemical IC50
T2 construct: purchased MyBioSource
T2 sequence (Q9NUB1 38-689): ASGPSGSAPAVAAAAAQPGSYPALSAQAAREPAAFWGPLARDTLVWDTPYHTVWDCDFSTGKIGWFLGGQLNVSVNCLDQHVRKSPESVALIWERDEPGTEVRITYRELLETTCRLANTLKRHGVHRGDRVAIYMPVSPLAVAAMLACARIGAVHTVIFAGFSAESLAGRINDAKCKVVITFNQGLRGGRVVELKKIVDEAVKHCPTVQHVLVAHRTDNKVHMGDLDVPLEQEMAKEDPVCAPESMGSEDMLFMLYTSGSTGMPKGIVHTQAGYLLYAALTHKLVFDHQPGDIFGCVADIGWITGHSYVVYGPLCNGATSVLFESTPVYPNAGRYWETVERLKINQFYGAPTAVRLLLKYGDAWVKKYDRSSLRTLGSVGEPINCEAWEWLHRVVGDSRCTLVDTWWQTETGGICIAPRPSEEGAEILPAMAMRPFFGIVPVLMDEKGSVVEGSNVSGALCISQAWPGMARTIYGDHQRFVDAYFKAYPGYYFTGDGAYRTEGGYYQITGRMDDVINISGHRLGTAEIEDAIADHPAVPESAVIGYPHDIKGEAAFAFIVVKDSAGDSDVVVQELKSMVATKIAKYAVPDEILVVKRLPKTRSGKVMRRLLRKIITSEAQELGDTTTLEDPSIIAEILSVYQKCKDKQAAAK
Summary of the method: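 5 nM human ACSS1 incubated 30 min at RT with compound in pH 7.5 Hepes buffer with 15 μM CoA, 5 mM acetate, 300 μM ATP, 2 mM MgCl2 and pyrophosphatase. Released phosphate detected with Biomol Green (30 min), absorbance 620 nm. IC50 from constrained non-linear regression.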

[1] = target: T3, ACSS2 in MDA-MB-468 cells (Homo sapiens, UniProt Q9NR19); assay: Cellular fatty-acid IC50: 13C-acetate incorporation into fatty acids (palmitate), LC-MS; assay type: cell-based; conditions: hypoxic conditions (1% O2), 75% charcoal stripped serum, 5 hours, 13C-acetate into palmitate, read-out: Cellular Fatty-acid IC50 High Serum MDA468
T3 construct: endogenous in cells; host or cells: MDA-MB-468 cells, hypoxia (1% O2)
T3 sequence (Q9NR19 whole entry): as the sequence (Q9NR19 whole entry) above
Procedure: Cellular Fatty-Acid IC50 Determination:
The cellular activity of ACSS2 was measured in MDA-MB-468 cells under hypoxic conditions by tracing the incorporation of labelled carbons from ^13C-acetate into newly synthesized fatty acids. The assay was performed using 75% charcoal stripped serum (high serum conditions).
MDA-MB-468 cells were seeded in 12-well plates (0.35×10^6 cells per well) in plating medium (Dulbecco's Modified Eagle Medium containing 25 mM D-glucose, 1 mM sodium pyruvate, 10% v/v fetal bovine serum, and 2 mM glutamine) and incubated for 24 hours under hypoxic conditions (1% O2).
The next day, tracing medium containing DMEM (01-057-1A) containing 75% charcoal stripped serum (Biological industries 04-201-1A), 3.5 μg/mL Biotin (Sigma-Aldrich B4639), 1 mM Pyruvate, 5.5 mM Glucose, 0.65 mM Glutamine and 0.5 mM ^13C-Acetate (Sigma-Aldrich #282014) with serial dilutions of the compounds in the range of 0.000512-1000 nM were prepared. The plating medium was replaced with 1 mL tracing medium plus compounds and the cells were incubated for 5 hours under hypoxic conditions (1% O2). Plating medium in control wells (without cells or without compounds) was replaced with 1 mL tracing medium containing 0.01% v/v DMSO.
The level of ^13C-acetate incorporation into fatty acids (palmitate) was measured by LC-MS analysis and IC50 as described below:
Sample Preparation for LC-MS
• a) Cells were washed twice with cold phosphate buffered saline (PBS), scraped into 0.5 mL EDTA pH 8.0, and transferred into 1.1 mL V-shaped HPLC glass tubes. • b) The cell suspensions were centrifuged for 5 minutes at 400×g, 4° C. and the supernatants were removed. • c) Cell pellets were frozen at −80° C.
• d) Cell pellets were resuspended in 0.2 mL of 80% v/v ethanol in water containing 0.02 M NaOH in 1.1 ml glass (v-bottom) HPLC vials. • e) The vials were closed tight and incubated at 66° C. for 60 minutes. • f) Acetonitrile containing 2% v/v formic acid (150 μL) was added to each vial and the mixtures were transferred to Eppendorf tubes for centrifugation at 17 000×g for 20 minutes. • g) Supernatants were transferred to LC-MS vials.
The relative palmitate concentration was measured by LC-MS in reconstructed selected ion monitoring (RSIM) mode and negative ion mode. Samples were analyzed on a Phenomenex Kinetex 2.6 μm XB-C18 150×2.1 mm column at 45° C. (0.4 mL/minute flow rate) using: • a) A gradient from 15% A/85% C to 100% C for 0 to 2 minutes (A: water containing 5% v/v acetonitrile, 10 mM ammonium acetate, and 10 mM acetic acid; C: a mixture of 50% v/v acetonitrile and 50% v/v methanol). • b) Isocratic flow (100% C) for 2 to 5 minutes. • c) Equilibration in isocratic conditions (15% A/85% C) for 5 to 8 minutes.
Palmitate was eluted at approximately 3.4 minutes.
The percent inhibition was calculated relative to the sample without compound and after background deduction. IC50 values were calculated using non-linear regression curve fit analysis with 0% and 100% constraints (CDD Vault, Collaborative Drug Discovery, Inc. or GraphPad Prism).
The inhibitory activities of each compound against ACSS2 in MDA-MB-468 cells under high serum conditions, as determined by ^13C-acetate incorporation into fatty acids (palmitate), are presented in Table 2.

| SMILES | IC50 (human ACSS2 protein) [µM] | ACSS1 Biochemical IC50 (nM) (human ACSS1 protein) | IC50 [1] [µM] | IC50 (human ACSS1 protein) [µM] |
| --- | --- | --- | --- | --- |
| COc1ccc(-c2[nH]c(C)c(C(=O)Nc3cccc(-c4cnn(C)n4)c3)[n+]2[O-])cc1-c1c(C)cccc1C [Compound 201, 2-(6-methoxy-2′,6′-dimethyl-[1,1′-biphenyl]-3-yl)-5-methyl-4-((3-(2-methyl-2H-1,2,3-triazol-4-yl)phenyl)carbamoyl)-1H-imidazole 3-oxide] | < 0.001 | Inactive | < 0.02 | – |
| CCC(F)(F)c1cccc(NC(=O)c2c(C)[nH]c(-c3cccc(-c4c(C)cnnc4C)c3)[n+]2[O-])c1 [Compound 116, 4-((3-(1,1-difluoropropyl)phenyl)carbamoyl)-2-(3-(3,5-dimethylpyridazin-4-yl)phenyl)-5-methyl-1H-imidazole 3-oxide] | < 0.001 | Inactive | < 0.02 | – |
| CCC(F)(F)c1cccc(NC(=O)c2c(C)[nH]c(-c3cccc(-c4c(C)cccc4C)c3)[n+]2[O-])c1 [Compound 107, 4-((3-(1,1-difluoropropyl)phenyl)carbamoyl)-2-(2′,6′-dimethyl-[1,1′-biphenyl]-3-yl)-5-methyl-1H-imidazole 3-oxide] | < 0.001 | Inactive | < 0.02 | – |
| COc1ccc(-c2[nH]c(C)c(C(=O)Nc3cccc(C(F)(F)C4CC4)c3)[n+]2[O-])cc1-c1c(C)cccc1C [Compound 104, 4-((3-(cyclopropyldifluoromethyl)phenyl)carbamoyl)-2-(6-methoxy-2′,6′-dimethyl-[1,1′-biphenyl]-3-yl)-5-methyl-1H-imidazole 3-oxide] | < 0.001 | Inactive | 0.02 to 0.05 | – |
| CCC(F)(F)c1cccc(NC(=O)c2c(C)[nH]c(-c3cccc(-c4ncncc4C)c3)[n+]2[O-])c1 [Compound 109, 4-((3-(1,1-difluoropropyl)phenyl)carbamoyl)-5-methyl-2-(3-(5-methylpyrimidin-4-yl)phenyl)-1H-imidazole 3-oxide] | < 0.001 | Inactive | < 0.02 | – |
| CNS(=O)(=O)c1cccc(NC(=O)c2c(C)[nH]c(-c3ccc(OC)c(-c4c(C)cccc4C)c3)[n+]2[O-])c1 [Compound 187, 2-(6-methoxy-2′,6′-dimethyl-[1,1′-biphenyl]-3-yl)-5-methyl-4-((3-(N-methylsulfamoyl)phenyl)carbamoyl)-1H-imidazole 3-oxide] | < 0.001 | Inactive | 0.02 to 0.05 | – |
| Cc1cccc(C)c1-c1cc(-c2[nH]c(C)c(C(=O)Nc3cccc(C(F)(F)C4CC4)c3)[n+]2[O-])ccc1Cl [Compound 197, 2-(6-chloro-2′,6′-dimethyl-[1,1′-biphenyl]-3-yl)-4-((3-(cyclopropyldifluoromethyl)phenyl)carbamoyl)-5-methyl-1H-imidazole 3-oxide] | < 0.001 | Inactive | > 0.05 | – |
| CCC(F)(F)c1cccc(NC(=O)c2c(C)[nH]c(-c3cc(-c4c(C)cccc4C)c(OC)cc3F)[n+]2[O-])c1 [Compound 125, 4-((3-(1,1-difluoropropyl)phenyl)carbamoyl)-2-(4-fluoro-6-methoxy-2′,6′-dimethyl-[1,1′-biphenyl]-3-yl)-5-methyl-1H-imidazole 3-oxide] | < 0.001 | Inactive | < 0.02 | – |
| CCC(F)(F)c1cccc(NC(=O)c2c(C)[nH]c(-c3cccc(-c4c(C)cccc4C)n3)[n+]2[O-])c1 [Compound 111, 4-((3-(1,1-difluoropropyl)phenyl)carbamoyl)-2-(6-(2,6-dimethylphenyl)pyridin-2-yl)-5-methyl-1H-imidazole 3-oxide] | < 0.001 | Inactive | > 0.05 | – |
| COc1cc(Cl)c(-c2[nH]c(C)c(C(=O)Nc3cccc(C(F)(F)C4CC4)c3)[n+]2[O-])cc1-c1c(C)cccc1C [Compound 198, 2-(4-chloro-6-methoxy-2′,6′-dimethyl-[1,1′-biphenyl]-3-yl)-4-((3-(cyclopropyldifluoromethyl)phenyl)carbamoyl)-5-methyl-1H-imidazole 3-oxide] | < 0.001 | Inactive | > 0.05 | – |
| CCC(F)(F)c1cccc(NC(=O)c2c(C)[nH]c(-c3ccc(OC)c(-c4c(Cl)cccc4Cl)c3)[n+]2[O-])c1 [Compound 126, 2-(2′,6′-dichloro-6-methoxy-[1,1′-biphenyl]-3-yl)-4-((3-(1,1-difluoropropyl)phenyl)carbamoyl)-5-methyl-1H-imidazole 3-oxide] | < 0.001 | Inactive | 0.02 to 0.05 | – |
| CNC(=O)c1cccc(NC(=O)c2c(C)[nH]c(-c3ccc(F)c(-c4c(C)cccc4C)c3)[n+]2[O-])c1 [Compound 177, 2-(6-fluoro-2′,6′-dimethyl-[1,1′-biphenyl]-3-yl)-5-methyl-4-((3-(methylcarbamoyl)phenyl)carbamoyl)-1H-imidazole 3-oxide] | < 0.001 | – | < 0.02 | > 0.03 |
| CCC(F)(F)c1cccc(NC(=O)c2c(C)[nH]c(-c3ccc(C#N)c(-c4c(C)cccc4C)c3)[n+]2[O-])c1 [Compound 114, 2-(6-cyano-2′,6′-dimethyl-[1,1′-biphenyl]-3-yl)-4-((3-(1,1-difluoropropyl)phenyl)carbamoyl)-5-methyl-1H-imidazole 3-oxide] | < 0.001 | – | < 0.02 | > 0.03 |
| COc1ccc(-c2[nH]c(C)c(C(=O)Nc3cccc(C(C)(F)F)c3)[n+]2[O-])cc1-c1c(C)cccc1C [Compound 120, 4-((3-(1,1-difluoroethyl)phenyl)carbamoyl)-2-(6-methoxy-2′,6′-dimethyl-[1,1′-biphenyl]-3-yl)-5-methyl-1H-imidazole 3-oxide] | < 0.001 | Inactive | < 0.02 | – |
